A short description of series [1]: Non-enzymatic hydrolysis in assay solution (steady current steps before LE addition). Type of series: physicochemical. The following applies: pH 7.40 PBS assay solution, <200 s. As for the experimental part: (§1) The assay solution (5.00 mL) was made of pH 7.40 PBS containing both methyl pyruvate (MP) and alcohol oxidase (AOx). The current flowing through a N-CNT electrode at −0.20 V was measured continuously while a stirred assay solution was sequentially spiked with three 50-μL calibrating aliquots of H2O2 and one 50-μL aliquot of LE. This produced an ICECEA amperogram with the three current steps providing a calibration slope CS and an ascending linear current segment having an assay slope AS. The ICECEA amperograms shown were shortened to display only the linear portion of ascending current segment.
The slope of current segments at >200 s increased with the concentration of MP in a solution.

The next series can be described thus: Solubility in water. The class given is physicochemical.
A further series relates to leukocyte esterase (LE). As to the kind of experiment: Internally calibrated electrochemical continuous enzyme assay (ICECEA) of LE with ester substrate coupled to alcohol oxidase. The class given is biochemical, human. The conditions noted are these: pH 7.40 PBS. As for the experimental part: The original suspension of human leukocytes was diluted 10 times with a pH 7.40 0.050 M phosphate buffer saline (PBS, 154 mM NaCl) solution that contained 10 vol. % DMSO and left for 10 min to lyse the leukocytes chemically. The suspension was then sonicated for 30 s (Q125 Qsonica, 20% power) to complete the lysing process. The sonication was done in 5 s intervals with 5 s rest cycles to minimize the enzyme deactivation due to solution overheating. The lysate was centrifuged at 10000×g for 5 min, and the supernatant was transferred to a 1.70-mL microcentrifuge tube (Corning, N.Y.) and stored in a freezer at −20° C. when not in use.
Assays. The assays of LE were conducted at a N-CNT electrode by following the protocol of internally calibrated electrochemical continuous enzyme assay (ICECEA) (Zhang et. al., M.; Anal. Chem. 2013, 85, 6026-6032; Bekhit et. al., Anal. Chem. 2019, 91, 3163-3169).
as §1
The AS and CS slopes were used to calculate the unit U of the enzymatic activity of LE:
By definition, one unit (U) of activity was equal to the amount of LE that consumed 1.0 micromole of MP per 1.0 min in a pH 7.40 PBS solution at room temperature (21° C.).
Kinetic Testing. The hypothesis formulated above was tested first by determining the kinetics of reaction 1. To ensure that the reaction was rate-limiting, the excess of AOx (25 mU) over LE (3 mU) was used. In addition, the concentration of H2O2 was kept within a linear range of calibration plot (0.50-40 μM) to avoid the non-linearity of electrode response to H2O2 from affecting kinetic measurements.
Assay of LE. The analytical merit of the coupling of reactions 1 and 2 via methanol was evaluated by using the MP to assay LE in PBS samples. To conduct the assay under the zero-order kinetics, the high concentration of MP was selected (88 μM, >10Km).
Control Experiments with Small Esters Other Than Methyl Pyruvate. […] The data in FIG. 7 underline the uniqueness of the methyl pyruvate-based method for the quantification of LE as a biomarker of infection.

[2] abbreviates: 1.4 nM LE, 25 mU AOx, 1-40 μM MP, Michaelis-Menten fit, RSD<10%.

The structures appear in SMILES notation.

With `COC(=O)C(C)=O` [MP, Methyl pyruvate], the non-enzymatic hydrolysis entry in series [1] was “slow on the experimental time scale”. In addition, the solubility in water result in “Solubility in water” is reported as “good solubility in water”. Besides, in the series on leukocyte esterase (LE) (setting [2]), the “specificity constant kcatKm^−1” value amounted to 2.3e+06 M⁻¹ s⁻¹ and the turnover number kcat is 15 s⁻¹. In addition, the “recognition of ester by LE as substrate (ascending current segment after LE addition at 200 s)” value in the series on leukocyte esterase (LE) (88 μM ester, 25 mU AO, N-CNT electrode −0.20 V, FIG. 7) is “produced the ascending current segment”. Further, the “average specific activity of LE reacting with MP (slope of LE activity vs. LE concentration)” value with leukocyte esterase (LE) (88 μM MP, 25 mU AOx, linear up to 260 μg L^−1 LE) turned out to be 12 U mg^−1.
